Experimental data from patent EP1626095A1, “Fluorescence-based kinetic determination of transglutaminase activity” (N-Zyme BioTec GmbH, priority 2004, dated 2006).
Where a SMILES comes first, the peptide text is derived from it. [ ]: non-standard residue; d: D form. The star is where a group is joined. X1 = O=[N+]([O-])c1ccc(NCCCCCN*)c([N+](=O)[O-])c1; 2Abz = Nc1ccccc1C(=O)O

How the values were obtained:
[1] = biological target: T1, gereinigte rekombinante humane Transglutaminase 2 (Homo sapiens, UniProt P21980); assay: Selectivity test: fluorescence-based kinetic transglutaminase activity measurement (release of quencher from substrate peptide), Ansatz 2; type: biochemical; conditions: substrate peptide 50 µM; rhHis6TG2 0,25 µM; 6 % DMSO; Exc.: 310 nm Em.: 427 nm, 20 min
T1 construct: His6
T1 sequence (P21980 1-687): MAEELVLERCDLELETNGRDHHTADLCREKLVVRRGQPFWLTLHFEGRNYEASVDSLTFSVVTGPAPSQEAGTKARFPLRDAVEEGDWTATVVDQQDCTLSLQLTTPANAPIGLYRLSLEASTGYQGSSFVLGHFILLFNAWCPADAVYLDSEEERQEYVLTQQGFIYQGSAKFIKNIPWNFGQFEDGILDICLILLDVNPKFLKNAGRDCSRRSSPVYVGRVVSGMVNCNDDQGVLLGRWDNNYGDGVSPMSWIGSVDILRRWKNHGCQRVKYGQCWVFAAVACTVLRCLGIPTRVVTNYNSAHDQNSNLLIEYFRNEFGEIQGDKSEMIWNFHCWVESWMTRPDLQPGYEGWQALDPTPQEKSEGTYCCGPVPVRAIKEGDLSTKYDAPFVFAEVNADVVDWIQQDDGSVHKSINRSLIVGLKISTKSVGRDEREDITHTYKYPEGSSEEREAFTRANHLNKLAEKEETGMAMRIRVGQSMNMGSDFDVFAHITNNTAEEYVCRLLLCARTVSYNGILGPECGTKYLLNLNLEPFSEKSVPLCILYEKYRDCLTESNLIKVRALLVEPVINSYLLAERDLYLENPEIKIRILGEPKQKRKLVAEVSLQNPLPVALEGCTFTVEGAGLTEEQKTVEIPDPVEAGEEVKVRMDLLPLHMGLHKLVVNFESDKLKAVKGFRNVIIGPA
Source text: (§1) Selektivität der Messungen verschiedener Transglutaminasen
2. Ansatz: Abz-Asn-Glu(CAD-DNP)-Glu-Gln-Val-Ser-Pro-Leu-Thr-Leu-Leu-Lys (2) Transglutaminase: gereinigte rekombinante humane Transglutaminase 2

[2] = biological target: T2, Faktor XIII (Homo sapiens, UniProt P00488); assay: Selectivity test: fluorescence-based kinetic transglutaminase activity measurement (release of quencher from substrate peptide), Ansatz 1; type: biochemical; conditions: substrate peptide 50 µM; Faktor XIII: 100 µl Citratplasma; 6 % DMSO; Exc.: 310 nm Em.: 427 nm, 20 min
T2 construct: 100 µl Citratplasma; from tissue; host or cells: citrate plasma
T2 sequence (P00488 39-732 limits assumed): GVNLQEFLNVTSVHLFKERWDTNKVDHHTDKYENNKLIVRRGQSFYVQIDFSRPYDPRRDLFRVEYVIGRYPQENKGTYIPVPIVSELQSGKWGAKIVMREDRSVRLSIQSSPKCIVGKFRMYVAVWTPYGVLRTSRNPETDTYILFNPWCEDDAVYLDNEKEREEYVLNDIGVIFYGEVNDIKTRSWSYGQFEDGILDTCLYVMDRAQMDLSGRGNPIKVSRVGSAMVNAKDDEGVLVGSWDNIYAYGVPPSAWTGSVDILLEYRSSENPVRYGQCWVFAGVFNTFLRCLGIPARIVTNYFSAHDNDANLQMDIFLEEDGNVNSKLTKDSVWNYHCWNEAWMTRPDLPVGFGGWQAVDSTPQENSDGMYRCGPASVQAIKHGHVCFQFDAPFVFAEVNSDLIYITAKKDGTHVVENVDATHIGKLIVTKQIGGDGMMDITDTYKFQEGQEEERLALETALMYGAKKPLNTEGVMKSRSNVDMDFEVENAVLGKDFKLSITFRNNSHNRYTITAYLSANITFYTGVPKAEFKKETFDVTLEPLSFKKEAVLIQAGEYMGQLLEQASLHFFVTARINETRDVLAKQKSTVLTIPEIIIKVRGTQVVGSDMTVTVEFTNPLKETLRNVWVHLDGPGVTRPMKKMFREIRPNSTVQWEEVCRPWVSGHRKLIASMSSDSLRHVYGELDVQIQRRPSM
Source text: as §1
1. Ansatz: Substratpeptid: Abz-Ala-Pro-Glu(CAD-DNP)-Gln-Glu-Ala (3), Transglutaminase: Faktor XIII

Row | Ergebnis (Anstieg der Fluoreszenz) [1] | Compound | Ergebnis (Anstieg der Fluoreszenz) [2]
1 | kein Anstieg der Fluoreszenz | 2-Aminobenzoyl-L-asparaginyl-N^δ-[N-(2,4-dinitrophenyl)1-5-aminopentyl]-L-glutaminyl-L-glutamyl-L-glutaminyl-L-valinyl-L-serinyl-L-prolinyl-L-leucinyl-L-threoninyl-L-leucinyl-L-leucin-L-lysin [Verbindung 2] | –
2 | – | C[C@H](NC(=O)[C@H](CCC(=O)O)NC(=O)[C@H](CCC(N)=O)NC(=O)[C@H](CCC(=O)NCCCCCNc1ccc([N+](=O)[O-])cc1[N+](=O)[O-])NC(=O)[C@@H]1CCCN1C(=O)[C@H](C)NC(=O)c1ccccc1N)C(=O)O [Verbindung 3] (H-[2Abz]APE(X1)QEA-OH) | Ergebnis: kein Anstieg der Fluoreszenz
